# Measurements taken from paper PMC7278776, “Multidrug Resistance Modulation Activity of Silybin Derivatives and Their Anti-Inflammatory Potential” (Antioxidants, 2020).
# Tested on: not listed separately
# Test: ORAC (oxygen radical absorption capacity) assay
# Settings: fluorescein/AAPH; read-out: ORAC, concentration necessary to halve the fluorescence response (IC50)
# Method: Antioxidant capacity of samples was determined by ORAC (oxygen radical absorption capacity) and CAA (cellular antioxidant activity) assays. ORAC assay was realized by the previously described protocol. Briefly, 50 µL of the fluorescein solution (1.6 µg/mL in phosphate-buffered saline (PBS), pH 7.4) was added by a dispenser (MultiFlo Microplate Dispenser, BioTek Instrument, Winooski, VT, USA) into each well of a 96-well plate. Subsequently, 2 µL of tested compound in the concentration range 1.25–20 µM and 23 µL of PBS were added to the wells. The plate was incubated for 15 min at 37 °C and then 25 µL of AAPH (60 mg/mL) was added to each well. AAPH was replaced with PBS for the negative control. Immediately, the fluorescence was recorded by the microplate reader (SpectraMax i3 Multi-Mode Detection Platform, Molecular Devices, San Jose, CA, USA) for 2 h in 5 min steps (excitation/emission 485/535 nm).
row,SMILES,IC50 [µM]
1,"COc1cc(C2Oc3cc([C@H]4Oc5cc(O)cc(O)c5C(=O)[C@@H]4O)ccc3OC2CO)ccc1O (stereo partly drawn) [Silybin AB, silybin]",7.1 ± 0.6
2,"COc1cc([C@@H]2Oc3cc([C@H]4Oc5cc(O)cc(O)c5C(=O)[C@@H]4O)ccc3O[C@H]2CO)ccc1O [Silybin B, silybin B]",6.8 ± 0.3

# Tested on: nitric oxide (NO) production by LPS-stimulated macrophages (RAW 264.7)
# Test: NO production by LPS-stimulated macrophages (Griess)
# Format: cell-based, mouse
# Settings: Mus musculus, RAW264.7; RAW 264.7, LPS 1 µg/mL, 24 h; read-out: NO Production, concentration necessary to halve NO production (IC50)
# Method: Immunomodulatory effect of tested compounds was determined as their ability to decrease nitric oxide (NO) production by LPS-stimulated macrophages (RAW 264.7, Sigma-Aldrich). Briefly, the cells were seeded into the 96-well plate at a density of 1 × 10^6 cells/mL in DMEM medium (supplemented with 2 mM L-glutamine and 1 × antibiotic antimycotic solution). After 48 h, the cells were washed with PBS. The MEM medium enriched with LPS (1 µg/mL) was added to the wells, together with the samples in the concentration range of 6.25–100 µM at a final volume of 100 µL. Indomethacin, a non-steroidal anti-inflammatory drug, was tested as a positive control in the concentration range 6.25–100 µM. After 24 h, the medium was used for the quantification of NO and inflammatory cytokines.
# After 15 min, absorbance was recorded at 540 nm.
row,SMILES,IC50 [µM]
1,"COc1cc(C2Oc3cc([C@H]4Oc5cc(O)cc(O)c5C(=O)[C@@H]4O)ccc3OC2CO)ccc1O (stereo partly drawn) [Silybin AB, silybin]",23.6 ± 1.2
2,"COc1cc([C@@H]2Oc3cc([C@H]4Oc5cc(O)cc(O)c5C(=O)[C@@H]4O)ccc3O[C@H]2CO)ccc1O [Silybin B, silybin B]",26 ± 3

# Molecular target: acetylcholinesterase (Homo sapiens, UniProt P22303)
# Sequence (P22303 32-614, species assumed): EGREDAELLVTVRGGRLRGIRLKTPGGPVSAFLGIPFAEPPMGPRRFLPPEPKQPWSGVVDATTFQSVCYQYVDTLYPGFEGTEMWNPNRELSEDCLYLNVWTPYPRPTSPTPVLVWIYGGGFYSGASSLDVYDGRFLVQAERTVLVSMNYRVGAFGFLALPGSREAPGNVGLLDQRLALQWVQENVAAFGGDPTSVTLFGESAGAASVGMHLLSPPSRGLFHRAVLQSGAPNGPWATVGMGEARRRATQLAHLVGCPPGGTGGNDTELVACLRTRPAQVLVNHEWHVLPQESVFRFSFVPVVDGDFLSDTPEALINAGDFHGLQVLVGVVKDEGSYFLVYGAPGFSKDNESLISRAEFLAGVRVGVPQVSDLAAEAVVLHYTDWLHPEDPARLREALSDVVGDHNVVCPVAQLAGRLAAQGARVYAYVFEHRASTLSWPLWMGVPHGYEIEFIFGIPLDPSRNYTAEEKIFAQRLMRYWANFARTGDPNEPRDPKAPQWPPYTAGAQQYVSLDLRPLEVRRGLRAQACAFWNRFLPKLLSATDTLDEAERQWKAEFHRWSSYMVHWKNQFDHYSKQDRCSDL
# Test: Acetylcholinesterase activity, Ellman colorimetric method
# Format: biochemical
# Settings: not given
# Method: The activity of acetylcholinesterase was measured by the Ellman colorimetric method. A stock solution of acetylcholinesterase was prepared in PBS (0.057 U/mL), 100× diluted and stored in a freezer (−20 °C). Further, the solution of DTNB (5,5′-dithio-bis-2-nitrobenzoic acid, 50 µM) and ATC ([…], 50 µM) was prepared. […] Afterwards, 10 µL of DNTB and ATC solution was added, and the reaction was launched. After the addition of reagents, the absorbance at 412 nm was recorded for 10 min every minute.
row,SMILES,IC50 [µM]
1,"COc1cc(C2Oc3cc([C@H]4Oc5cc(O)cc(O)c5C(=O)[C@@H]4O)ccc3OC2CO)ccc1O (stereo partly drawn) [Silybin AB, silybin]",22.6 ± 1.4
2,"COc1cc([C@@H]2Oc3cc([C@H]4Oc5cc(O)cc(O)c5C(=O)[C@@H]4O)ccc3O[C@H]2CO)ccc1O [Silybin B, silybin B]",83.7 ± 6.4

# Tested on: ABCA1
# Test: ABCA1 mRNA expression (real-time PCR)
# Format: cell-based, human
# Settings: A2780/DOX, 10 µM combined with doxorubicin at IC25, 48 h
# Method: (§1) The A2780/DOX cell line was seeded into 5 cm Petri dishes with DMEM medium at 1 × 10^5 cell/mL. After 24 h, the dishes were washed with PBS and new DMEM medium supplemented with doxorubicin (at concentration equal to IC25) and samples (10 µM) were added. After 48 h of treatment, the cells were washed with PBS and harvested using the standard trypsin-EDTA procedure. The harvested cells were centrifuged (3200× g; 10 min, 4 °C). The supernatant was discarded, and the pellets were washed with 1.5 mL of cooled PBS (5400× g; 10 min, 4 °C). The washing step was repeated with 1 mL of PBS and the cells were centrifuged again (10,000× g; 3 min, 4 °C). Afterwards, the pellets were resuspended in 1 mL of Trizol (Invitrogen, Carlsbad, CA, USA) and transferred into pre-cooled RNase-free microfuge tubes. The samples were stored at −80 °C.
# (§2) A Quant-iT RiboGreen RNA Assay Kit (Invitrogen) was used to determine the RNA concentration using the Infinite M200 plate reader (Tecan, Männedor, Switzerland). The cDNA was prepared from 0.5 µg of total RNA using a RevertAid First Strand Synthesis cDNA Kit (MBI Fermentas, Vilnius, Lithuania). The amplification of the ubiquitin C gene fragment was used to determine the quality of cDNA.
# (§3) The experiment was performed using the ViiA7 Real-Time polymerase chain reaction (PCR) System (Life Technologies, Camarillo, CA, USA) with a 384-well block. Before quantitative real-time PCR, the master mix was prepared by mixing 2 µL of 8 × diluted cDNA, 1.75 µL of RNase free water, 1 µL of 5 × HotFIREPol Probe quantitative PCR Mix Plus (Solis Biodyne, Tartu, Estonia) and 0.25 µL of specific 20 × TaqMan Gene Expression Assay (Life Technologies), giving 5 µL of final reaction volume. Cycling parameters were: initial hold at 50 °C for 2 min and denaturation at 95 °C for 10 min, followed by 45 cycles consisting of denaturation at 95 °C for 15 s and annealing/extension at 60 °C for 1 min. After each extension phase, the fluorescence values were acquired. Duplicate samples were used for measurement and samples with a standard deviation of duplicates > 1.0 cycle threshold (Ct) were re-analyzed. The real time PCR procedure was maintained according to MIQE (Minimum information for publication of quantitative real-time PCR experiments) guidelines. The software REST 2009 (Qiagen, Hilden, Germany) served to compare relative transcript levels of genes in the cell line.
row,SMILES,ABCA1 Expression Difference
1,"COc1cc(C2Oc3cc([C@H]4Oc5cc(O)cc(O)c5C(=O)[C@@H]4O)ccc3OC2CO)ccc1O (stereo partly drawn) [Silybin AB, silybin]",2.922
2,"COc1cc([C@@H]2Oc3cc([C@H]4Oc5cc(O)cc(O)c5C(=O)[C@@H]4O)ccc3O[C@H]2CO)ccc1O [Silybin B, silybin B]",2.415

# Same assay, conditions: A2780/DOX, 10 µM, 48 h, without doxorubicin
row,SMILES,ABCA1 Expression Difference
1,"COc1cc(C2Oc3cc([C@H]4Oc5cc(O)cc(O)c5C(=O)[C@@H]4O)ccc3OC2CO)ccc1O (stereo partly drawn) [Silybin AB, silybin]",2.021

# Tested on: ABCB2
# Test: ABCB2 mRNA expression (real-time PCR)
# Format: cell-based, human
# Settings: A2780/DOX, 10 µM combined with doxorubicin at IC25, 48 h
# Method: as §1, §2, §3
row,SMILES,ABCB2 Expression Difference
1,"COc1cc(C2Oc3cc([C@H]4Oc5cc(O)cc(O)c5C(=O)[C@@H]4O)ccc3OC2CO)ccc1O (stereo partly drawn) [Silybin AB, silybin]",18.114
2,"COc1cc([C@@H]2Oc3cc([C@H]4Oc5cc(O)cc(O)c5C(=O)[C@@H]4O)ccc3O[C@H]2CO)ccc1O [Silybin B, silybin B]",15.698

# Tested on: ABCC1 (MRP1)
# Test: ABCC1 mRNA expression (real-time PCR)
# Format: cell-based, human
# Settings: 10 µM, 48 h, without doxorubicin
# Method: as §1, §2, §3
row,SMILES,downregulation of ABCC1 (MRP1) expression [%]
1,"COc1cc([C@@H]2Oc3cc([C@H]4Oc5cc(O)cc(O)c5C(=O)[C@@H]4O)ccc3O[C@H]2CO)ccc1O [Silybin B, silybin B]",59

# Same assay, conditions: A2780/DOX, 10 µM combined with doxorubicin at IC25, 48 h
row,SMILES,ABCC1 Expression Difference
1,"COc1cc(C2Oc3cc([C@H]4Oc5cc(O)cc(O)c5C(=O)[C@@H]4O)ccc3OC2CO)ccc1O (stereo partly drawn) [Silybin AB, silybin]",1.640

# Same assay, conditions: A2780/DOX, 10 µM, 48 h, without doxorubicin
SMILES,ABCC1 Expression Difference,ABCC1 Treated vs. Untreated
"COc1cc(C2Oc3cc([C@H]4Oc5cc(O)cc(O)c5C(=O)[C@@H]4O)ccc3OC2CO)ccc1O (stereo partly drawn) [Silybin AB, silybin]",2.521,–
"COc1cc([C@@H]2Oc3cc([C@H]4Oc5cc(O)cc(O)c5C(=O)[C@@H]4O)ccc3O[C@H]2CO)ccc1O [Silybin B, silybin B]",0.413,DOWN

# Tested on: ABCD2
# Test: ABCD2 mRNA expression (real-time PCR)
# Format: cell-based, human
# Settings: A2780/DOX, 10 µM combined with doxorubicin at IC25, 48 h
# Method: as §1, with “After 24 h, the dishes were washed with PBS and new DMEM medium supplemented with doxorubicin (at concentration equal to IC25) and samples (10 µM) were added.” left out
# as §2, §3
SMILES,ABCD2 Expression Difference,ABCD2 Treated vs. Untreated
"COc1cc(C2Oc3cc([C@H]4Oc5cc(O)cc(O)c5C(=O)[C@@H]4O)ccc3OC2CO)ccc1O (stereo partly drawn) [Silybin AB, silybin]",0.494,DOWN
"COc1cc([C@@H]2Oc3cc([C@H]4Oc5cc(O)cc(O)c5C(=O)[C@@H]4O)ccc3O[C@H]2CO)ccc1O [Silybin B, silybin B]",0.448,DOWN

# Same assay, conditions: A2780/DOX, 10 µM, 48 h, without doxorubicin
SMILES,ABCD2 Expression Difference,ABCD2 Treated vs. Untreated
"COc1cc(C2Oc3cc([C@H]4Oc5cc(O)cc(O)c5C(=O)[C@@H]4O)ccc3OC2CO)ccc1O (stereo partly drawn) [Silybin AB, silybin]",1.566,–
"COc1cc([C@@H]2Oc3cc([C@H]4Oc5cc(O)cc(O)c5C(=O)[C@@H]4O)ccc3O[C@H]2CO)ccc1O [Silybin B, silybin B]",0.322,DOWN

# Tested on: ABCG2 (BCRP)
# Test: ABCG2 mRNA expression (real-time PCR)
# Format: cell-based, human
# Settings: 10 µM, 48 h, without doxorubicin
# Method: as §1, with “After 24 h, the dishes were washed with PBS and new DMEM medium supplemented with doxorubicin (at concentration equal to IC25) and samples (10 µM) were added.” left out
# as §2, §3
row,SMILES,downregulation of ABCG2 (BCRP) expression [%]
1,"COc1cc([C@@H]2Oc3cc([C@H]4Oc5cc(O)cc(O)c5C(=O)[C@@H]4O)ccc3O[C@H]2CO)ccc1O [Silybin B, silybin B]",67

# Same assay, conditions: A2780/DOX, 10 µM combined with doxorubicin at IC25, 48 h
row,SMILES,ABCG2 Expression Difference
1,"COc1cc(C2Oc3cc([C@H]4Oc5cc(O)cc(O)c5C(=O)[C@@H]4O)ccc3OC2CO)ccc1O (stereo partly drawn) [Silybin AB, silybin]",2.373
2,"COc1cc([C@@H]2Oc3cc([C@H]4Oc5cc(O)cc(O)c5C(=O)[C@@H]4O)ccc3O[C@H]2CO)ccc1O [Silybin B, silybin B]",1.902

# Same assay, conditions: A2780/DOX, 10 µM, 48 h, without doxorubicin
SMILES,ABCG2 Expression Difference,ABCG2 Treated vs. Untreated
"COc1cc([C@@H]2Oc3cc([C@H]4Oc5cc(O)cc(O)c5C(=O)[C@@H]4O)ccc3O[C@H]2CO)ccc1O [Silybin B, silybin B]",0.335,DOWN

# Tested on: ABCG4
# Test: ABCG4 mRNA expression (real-time PCR)
# Format: cell-based, human
# Settings: A2780/DOX, 10 µM combined with doxorubicin at IC25, 48 h
# Method: as §1, with “After 24 h, the dishes were washed with PBS and new DMEM medium supplemented with doxorubicin (at concentration equal to IC25) and samples (10 µM) were added.” left out
# as §2, §3
row,SMILES,ABCG4 Expression Difference
1,"COc1cc(C2Oc3cc([C@H]4Oc5cc(O)cc(O)c5C(=O)[C@@H]4O)ccc3OC2CO)ccc1O (stereo partly drawn) [Silybin AB, silybin]",5.289
2,"COc1cc([C@@H]2Oc3cc([C@H]4Oc5cc(O)cc(O)c5C(=O)[C@@H]4O)ccc3O[C@H]2CO)ccc1O [Silybin B, silybin B]",4.110

# Same assay, conditions: A2780/DOX, 10 µM, 48 h, without doxorubicin
SMILES,ABCG4 Expression Difference,ABCG4 Treated vs. Untreated
"COc1cc(C2Oc3cc([C@H]4Oc5cc(O)cc(O)c5C(=O)[C@@H]4O)ccc3OC2CO)ccc1O (stereo partly drawn) [Silybin AB, silybin]",1.846,–
"COc1cc([C@@H]2Oc3cc([C@H]4Oc5cc(O)cc(O)c5C(=O)[C@@H]4O)ccc3O[C@H]2CO)ccc1O [Silybin B, silybin B]",0.366,DOWN
